Measurements as given in article PMC9050769 (European Journal of Drug Metabolism and Pharmacokinetics, 2022).
Where two headings read alike, the source gives them in different places.

Experiments:
[1] = cited from earlier work
[2] = more potent than tramadol; cited from earlier work
[3] = Observed tramadol and ODT blood concentrations; type: in vivo, human
mu (µ) opioid receptor = settings: higher than that of tramadol; cited from earlier work
[4] = before inclusion of CrCL covariate (base model)
[5] = final model (with CrCL covariate)

Structure (SMILES): CNC(C)C1CCC(N)C(OC2C(N)CC(N)C(OC3OCC(C)(O)C(NC)C3O)C2O)O1 (stereo not drawn) [gentamicin]
- clearance in frail older patients compared to fit older patients [1]: reduced

Structure (SMILES): CN(C)C[C@H]1CCCC[C@]1(O)c1cccc(O)c1 [O-desmethyltramadol]
- BSV in CLm (final model): 21.6%
- CLm/F, clearance of O-desmethyltramadol (final model): 0.143 L/h
- potency relative to tramadol [2]: 100 times
- ODT concentration ([3]; patients received 100 mg of tramadol): around 100 µg/l
- ODT/tramadol concentration ratio at steady state, range ([3]; trough samples, n = 17): 0.08–0.82
- binding affinity to the mu (µ) opioid receptor relative to tramadol (mu (µ) opioid receptor): 300 fold

Structure (SMILES): COc1cccc(C2(O)CCCCC2CN(C)C)c1 (stereo not drawn) [tramadol]
- BSV in CL/F [4]: 78.9%
- BSV in V2/F [4]: 148%
- BSV in Q (before inclusion of ISAR covariate (base model)): 4.71%
- BSV in V1/F (final model): 73.8%
- BSV in kt (final model): 78.5%
- Q, inter-compartmental clearance (final model): 0.0426 L/h
- V2/F, apparent volume of distribution in peripheral compartment (final model): 0.379 L
- between-subject variability (BSV) in absorption rate constant (final model): 37.8%
- BSV in CL/F [5]: 6.61%
- BSV in V2/F [5]: 97.4%
- BSV in Q (final model (with ISAR covariate)): 2.19%
